The numbers were not newly measured in patent publication US9255080B2, “Quinazolinedione derivatives as PARP inhibitors” (Janssen Pharmaceutica NV, priority 2004, dated 2016), which cites them from elsewhere.

Data set [1] relates to ischemia and reperfusion of the heart. The conditions noted are these: rabbits, cited from earlier work.
Data set [2] relates to colitis induced by trinitrobenzene sulfonic acid. The conditions noted are these: rats, colitis by intraluminal trinitrobenzene sulfonic acid in 50% ethanol; cited from earlier work.

The structures appear in SMILES notation.

With `NC(=O)c1cccc(N)c1` [3-amino-benzamide], the “reduction in infarct size in the heart” value in data set [1] (single injection 10 mg/kg, one minute before occlusion or one minute before reperfusion) is 32-42%. Further, in data set [2], the “effect on inflammatory response and distal colon” value is “reduced the inflammatory response and restored the morphology and the energetic status of the distal colon”.

On to `Oc1cccc2c(O)nccc12` [1,5-dihydroxyisoquinoline], for which the “reduction in infarct size” value in data set [1] (single injection 1 mg/kg) is on record as 38-48%.
